Measured values: ChEMBL document CHEMBL5346873, “Strategic modification of low-activity natural antimicrobial peptides confers antibacterial potential in vitro and in vivo” (Eur J Med Chem, 2023)
Calls of active or inactive are those of the source. The calls are words filed in the database; no cut-off is given here.

Tests used:
Escherichia coli = experiment: Antibacterial activity against Escherichia coli incubated for 16 to 20 hrs; format: functional; details: time 16-20 hrs
Klebsiella aerogenes [1] = experiment: Antibacterial activity against Enterobacter aerogenes incubated for 16 to 20 hrs; format: functional; details: time 16-20 hrs
Vibrio alginolyticus [2] = experiment: Antibacterial activity against Vibrio alginolyticus incubated for 16 to 20 hrs; format: functional; details: time 16-20 hrs
Vibrio harveyi = experiment: Antibacterial activity against Vibrio harveyi incubated for 16 to 20 hrs; format: functional; details: time 16-20 hrs
Salmonella typhimurium [3] = experiment: Antibacterial activity against Salmonella typhimurium incubated for 16 to 20 hrs; format: functional, Salmonella enterica subsp. enterica serovar Typhimurium; details: Salmonella enterica; time 16-20 hrs
Streptococcus agalactiae [4] = experiment: Antibacterial activity against Streptococcus agalactiae incubated for 16 to 20 hrs; format: functional; details: time 16-20 hrs
Enterococcus faecalis [5] = experiment: Antibacterial activity against Enterococcus faecalis incubated for 16 to 20 hrs; format: functional; details: time 16-20 hrs
Enterococcus faecium = experiment: Antibacterial activity against Enterococcus faecium incubated for 16 to 20 hrs; format: functional; details: time 16-20 hrs
Candida tropicalis = experiment: Antifungal activity against Candida tropicalis incubated for 16 to 20 hrs; format: functional; details: time 16-20 hrs
Vibrio vulnificus [6] = experiment: Antibacterial activity against Vibrio vulnificus V1 incubated for 16 to 20 hrs; format: functional; details: time 16-20 hrs
Vibrio vulnificus [7] = experiment: Antibacterial activity against Vibrio vulnificus V3 incubated for 16 to 20 hrs; format: functional; details: time 16-20 hrs
Vibrio alginolyticus [8] = experiment: Bactericidal activity against Vibrio alginolyticus incubated overnight; format: functional
Edwardsiella tarda = experiment: Bactericidal activity against Edwardsiella tarda incubated overnight; format: functional
Klebsiella oxytoca = experiment: Bactericidal activity against Klebsiella oxytoca incubated overnight; format: functional
Salmonella typhimurium [9] = experiment: Bactericidal activity against Salmonella typhimurium incubated overnight; format: functional, Salmonella enterica subsp. enterica serovar Typhimurium; details: Salmonella enterica
[10] = system: Staphylococcus haemolyticus; experiment: Bactericidal activity against Staphylococcus haemolyticus incubated overnight; format: functional
Streptococcus agalactiae [11] = experiment: Bactericidal activity against Streptococcus agalactiae incubated overnight; format: functional
Enterococcus faecalis [12] = experiment: Bactericidal activity against Enterococcus faecalis incubated overnight; format: functional
Vibrio vulnificus [13] = experiment: Bactericidal activity against Vibrio vulnificus V1 incubated overnight; format: functional
Vibrio vulnificus [14] = experiment: Bactericidal activity against Vibrio vulnificus V3 incubated overnight; format: functional
[15] = Cytotoxicity against human HaCaT cells incubated for 24 hrs by alamar blue assay; format: toxicity, cell-based; details: read-out: LD50
Vibrio vulnificus [16] = experiment: Antibacterial activity against Vibrio vulnificus 204 assessed as induction of resistance development by measuring fold increase in MIC measured after 15 passages; format: functional
Vibrio vulnificus [17] = experiment: Antibiofilm activity against Vibrio vulnificus 204 assessed as inhibition of biofilm formation at 25 to 100 ug/ml incubated for 24 hrs by crystal violet staining based assay; format: functional, organism-based; details: dose 25-100 µg/ml
Vibrio vulnificus [18] = experiment: Antibiofilm activity against Vibrio vulnificus V1 assessed as inhibition of biofilm formation at 25 to 100 ug/ml incubated for 24 hrs by crystal violet staining based assay; format: functional, organism-based; details: dose 25-100 µg/ml
Vibrio vulnificus [19] = experiment: Antibiofilm activity against Vibrio vulnificus V3 assessed as inhibition of biofilm formation at 25 to 100 ug/ml incubated for 24 hrs by crystal violet staining based assay; format: functional, organism-based; details: dose 25-100 µg/ml
Vibrio vulnificus [20] = experiment: Antibiofilm activity against Vibrio vulnificus 204 assessed as inhibition of biofilm formation at 50 to 100 ug/ml incubated for 24 hrs by crystal violet staining based assay; format: functional, organism-based; details: dose 50-100 µg/ml
Vibrio vulnificus [21] = experiment: Antibiofilm activity against Vibrio vulnificus V1 assessed as inhibition of biofilm formation at 50 to 100 ug/ml incubated for 24 hrs by crystal violet staining based assay; format: functional, organism-based; details: dose 50-100 µg/ml
Vibrio vulnificus [22] = experiment: Antibiofilm activity against Vibrio vulnificus V2 assessed as inhibition of biofilm formation at 50 to 100 ug/ml incubated for 24 hrs by crystal violet staining based assay; format: functional, organism-based; details: dose 50-100 µg/ml
Vibrio vulnificus [23] = experiment: Antibiofilm activity against Vibrio vulnificus V3 assessed as inhibition of biofilm formation at 50 to 100 ug/ml incubated for 24 hrs by crystal violet staining based assay; format: functional, organism-based; details: dose 50-100 µg/ml
Vibrio vulnificus [24] = experiment: Antibiofilm activity against Vibrio vulnificus 204 assessed as inhibition of biofilm formation at 25 ug/ml incubated for 24 hrs by crystal violet staining based assay; format: functional, organism-based; details: dose 25.0 µg/ml
Vibrio vulnificus [25] = experiment: Antibiofilm activity against Vibrio vulnificus V1 assessed as inhibition of biofilm formation at 25 ug/ml incubated for 24 hrs by crystal violet staining based assay; format: functional, organism-based; details: dose 25.0 µg/ml
Cell membrane [26] = experiment: Induction of membrane depolarization in Vibrio vulnificus at 100 ug/ml by DiBAC4(3) dye based fluorescence analysis; format: subcellular; details: dose 100.0 µg/ml
Cell membrane [27] = experiment: Induction of membrane lysis in Vibrio vulnificus at 1 time MIC incubated for 1 hr by TEM analysis; format: subcellular
Vibrio vulnificus [28] = experiment: Antibacterial activity against Vibrio vulnificus in presence of proteinase K; format: functional, organism-based
Vibrio vulnificus [29] = experiment: Antibacterial activity against Vibrio vulnificus in presence of pancreatin; format: functional, organism-based
Vibrio vulnificus [30] = experiment: Antibacterial activity against Vibrio vulnificus in presence of 0.1 ug/ml trypsin; format: functional, organism-based
Vibrio vulnificus [31] = experiment: Antibacterial activity against Vibrio vulnificus in presence of 1 to 10 ug/ml pepsin; format: functional, organism-based
Vibrio vulnificus [32] = experiment: Antibacterial activity against Vibrio vulnificus 204 in presence of human serum; format: functional, organism-based
Acinetobacter baumannii [33] = experiment: Antibacterial activity against Acinetobacter baumannii; format: functional
Streptococcus iniae [34] = experiment: Synergistic antibacterial activity against Streptococcus iniae in presence of doxycycline by checkerboard microtiter plate assay; format: functional
Acinetobacter baumannii [35] = experiment: Synergistic antibacterial activity against Acinetobacter baumannii in presence of doxycycline by checkerboard microtiter plate assay; format: functional
Streptococcus iniae [36] = experiment: Additive antibacterial activity against Streptococcus iniae in presence of meropenem by checkerboard microtiter plate assay; format: functional
Acinetobacter baumannii [37] = experiment: Additive antibacterial activity against Acinetobacter baumannii in presence of meropenem by checkerboard microtiter plate assay; format: functional
Pseudomonas aeruginosa [38] = experiment: Additive antibacterial activity against Pseudomonas aeruginosa in presence of meropenem by checkerboard microtiter plate assay; format: functional
Streptococcus agalactiae [39] = experiment: Synergistic antibacterial activity against Streptococcus agalactiae assessed as doxycycline MIC by checkerboard microtiter plate assay; format: functional
Klebsiella pneumoniae [40] = experiment: Synergistic antibacterial activity against Klebsiella pneumoniae expressing NDM1 assessed as doxycycline MIC by checkerboard microtiter plate assay; format: functional
Streptococcus agalactiae [41] = experiment: Synergistic antibacterial activity against Streptococcus agalactiae assessed as meropenem MIC by checkerboard microtiter plate assay; format: functional
Streptococcus iniae [42] = experiment: Additive antibacterial activity against Streptococcus iniae assessed as meropenem MIC by checkerboard microtiter plate assay; format: functional
Pseudomonas aeruginosa [43] = experiment: Additive antibacterial activity against Pseudomonas aeruginosa assessed as meropenem MIC by checkerboard microtiter plate assay; format: functional
Vibrio vulnificus [44] = experiment: Synergistic antibacterial activity against Vibrio vulnificus assessed as meropenem MIC by checkerboard microtiter plate assay; format: functional
Vibrio vulnificus [45] = experiment: Synergistic antibacterial activity against Vibrio vulnificus assessed as fractional inhibitory concentration in presence of doxycycline by checkerboard microtiter plate assay; format: functional
Klebsiella pneumoniae [46] = experiment: Synergistic antibacterial activity against Klebsiella pneumoniae expressing NDM1 assessed as fractional inhibitory concentration in presence of doxycycline by checkerboard microtiter plate assay; format: functional
Acinetobacter baumannii [47] = experiment: Additive antibacterial activity against Acinetobacter baumannii assessed as fractional inhibitory concentration in presence of meropenem by checkerboard microtiter plate assay; format: functional
Vibrio vulnificus [48] = experiment: Synergistic antibacterial activity against Vibrio vulnificus assessed as fractional inhibitory concentration in presence of meropenem by checkerboard microtiter plate assay; format: functional
Klebsiella aerogenes [49] = experiment: Synergistic antibacterial activity against Enterobacter aerogenes assessed as fractional inhibitory concentration in presence of meropenem by checkerboard microtiter plate assay; format: functional
[50] = Dermal toxicity in BALB/c mouse assessed as irritation at 125 mg/kg, TOPp measured after 48 hrs; format: organism-based; details: in vivo, topical_or_ocular

## H-KKCIAKAILKKAKKLLKKLVNP-OH
Escherichia coli
  MIC: 12.5 µg/mL
Klebsiella aerogenes [1]
  MIC: 12.5 µg/mL
Vibrio alginolyticus [2]
  MIC: 3.12 µg/mL
Vibrio harveyi
  MIC: 25 µg/mL
Salmonella typhimurium [3]
  MIC: 50 µg/mL
Streptococcus agalactiae [4]
  MIC: 3.12 µg/mL
Enterococcus faecalis [5]
  MIC: 25 µg/mL
Enterococcus faecium
  MIC: > 100 µg/mL
Candida tropicalis
  MIC: 100 µg/mL
Vibrio vulnificus [6]
  MIC: 12.5 µg/mL
Vibrio vulnificus [7]
  MIC: 12.5 µg/mL
Vibrio alginolyticus [8]
  MBC: 6.25 µg/mL
Edwardsiella tarda
  MBC: > 100 µg/mL
Klebsiella oxytoca
  MBC: 50 µg/mL
Salmonella typhimurium [9]
  MBC: 100 µg/mL
[10]
  MBC: < 1.56 µg/mL
Streptococcus agalactiae [11]
  MBC: 3.12 µg/mL
Enterococcus faecalis [12]
  MBC: > 100 µg/mL
Vibrio vulnificus [13]
  MBC: 12.5 µg/mL
Vibrio vulnificus [14]
  MBC: 12.5 µg/mL
[15]
  CC50 at 24 h: > 100 µg/mL
Vibrio vulnificus [16]
  fold change (FC): <2
Vibrio vulnificus [17]
  Activity: Active
Vibrio vulnificus [18]
  Activity: Active
Vibrio vulnificus [19]
  Activity: Active
Vibrio vulnificus [20]
  Activity: Active
Vibrio vulnificus [21]
  Activity: Active
Vibrio vulnificus [22]
  Activity: Active
Vibrio vulnificus [23]
  Activity: Active
Vibrio vulnificus [24]
  Activity: inactive
Vibrio vulnificus [25]
  Activity: inactive
Cell membrane [26]
  Activity: Active
Cell membrane [27]
  Activity: Active
Vibrio vulnificus [28]
  Activity: Active
Vibrio vulnificus [29]
  Activity: Active
Vibrio vulnificus [30]
  Activity: Active
Vibrio vulnificus [31]
  Activity: Active
Vibrio vulnificus [32]
  Activity: Active
Acinetobacter baumannii [33]
  MIC: 3.12 µg/mL
Streptococcus iniae [34]
  MIC: 0.048 µg/mL
Acinetobacter baumannii [35]
  MIC: 0.048 µg/mL
Streptococcus iniae [36]
  MIC: 0.048 µg/mL
Acinetobacter baumannii [37]
  MIC: 0.048 µg/mL
Pseudomonas aeruginosa [38]
  MIC: 0.78 µg/mL
Streptococcus agalactiae [39]
  MIC: 0.006 µg/mL
Klebsiella pneumoniae [40]
  MIC: 3.12 µg/mL
Streptococcus agalactiae [41]
  MIC: 0.002 µg/mL
Streptococcus iniae [42]
  MIC: 0.195 µg/mL
Pseudomonas aeruginosa [43]
  MIC: 0.195 µg/mL
Vibrio vulnificus [44]
  MIC: 0.003 µg/mL
Vibrio vulnificus [45]
  FIC: 0.14
Klebsiella pneumoniae [46]
  FIC: 0.37
Acinetobacter baumannii [47]
  FIC: 0.51
Vibrio vulnificus [48]
  FIC: 0.14
Klebsiella aerogenes [49]
  FIC: 0.14
[50]
  Activity: Non-Toxic

## H-FKWKSVLKGVKGFVKGYF-OH
Escherichia coli
  MIC: 6.25 µg/mL
Klebsiella aerogenes [1]
  MIC: 12.5 µg/mL
Vibrio alginolyticus [2]
  MIC: 3.12 µg/mL
Vibrio harveyi
  MIC: > 100 µg/mL
Salmonella typhimurium [3]
  MIC: 12.5 µg/mL
Streptococcus agalactiae [4]
  MIC: 3.12 µg/mL
Enterococcus faecalis [5]
  MIC: 50 µg/mL
Enterococcus faecium
  MIC: 25 µg/mL
Candida tropicalis
  MIC: 50 µg/mL
Vibrio vulnificus [6]
  MIC: 12.5 µg/mL
Vibrio vulnificus [7]
  MIC: 12.5 µg/mL
Vibrio alginolyticus [8]
  MBC: 6.25 µg/mL
Edwardsiella tarda
  MBC: 50 µg/mL
Klebsiella oxytoca
  MBC: 25 µg/mL
Salmonella typhimurium [9]
  MBC: 12.5 µg/mL
[10]
  MBC: < 1.56 µg/mL
Streptococcus agalactiae [11]
  MBC: 3.12 µg/mL
Enterococcus faecalis [12]
  MBC: > 100 µg/mL
Vibrio vulnificus [13]
  MBC: 12.5 µg/mL
Vibrio vulnificus [14]
  MBC: 12.5 µg/mL
[15]
  CC50 at 24 h: > 100 µg/mL
Vibrio vulnificus [16]
  fold change (FC): <2
Vibrio vulnificus [17]
  Activity: Active
Vibrio vulnificus [18]
  Activity: Active
Vibrio vulnificus [19]
  Activity: Active
Vibrio vulnificus [20]
  Activity: Active
Vibrio vulnificus [21]
  Activity: Active
Vibrio vulnificus [22]
  Activity: Active
Vibrio vulnificus [23]
  Activity: Active
Vibrio vulnificus [24]
  Activity: inactive
Vibrio vulnificus [25]
  Activity: inactive
Cell membrane [26]
  Activity: Active
Cell membrane [27]
  Activity: Active
Vibrio vulnificus [28]
  Activity: Active
Vibrio vulnificus [29]
  Activity: Active
Vibrio vulnificus [30]
  Activity: Active
Vibrio vulnificus [31]
  Activity: Active
Vibrio vulnificus [32]
  Activity: Active
Acinetobacter baumannii [33]
  MIC: 3.12 µg/mL
Streptococcus iniae [34]
  MIC: 0.024 µg/mL
Acinetobacter baumannii [35]
  MIC: 0.048 µg/mL
Streptococcus iniae [36]
  MIC: 0.024 µg/mL
Acinetobacter baumannii [37]
  MIC: 0.048 µg/mL
Pseudomonas aeruginosa [38]
  MIC: 6.25 µg/mL
Streptococcus agalactiae [39]
  MIC: 0.006 µg/mL
Klebsiella pneumoniae [40]
  MIC: 1.56 µg/mL
Streptococcus agalactiae [41]
  MIC: 0.002 µg/mL
Streptococcus iniae [42]
  MIC: 0.195 µg/mL
Pseudomonas aeruginosa [43]
  MIC: 0.195 µg/mL
Vibrio vulnificus [44]
  MIC: 0.003 µg/mL
Vibrio vulnificus [45]
  FIC: 0.14
Klebsiella pneumoniae [46]
  FIC: 0.18
Acinetobacter baumannii [47]
  FIC: 0.51
Vibrio vulnificus [48]
  FIC: 0.14
Klebsiella aerogenes [49]
  FIC: 0.14
[50]
  Activity: Non-Toxic
